# Test results from US20200128830A1, “FUSED BICYCLIC HETEROCYCLE DERIVATIVES AS PESTICIDES” (Bayer Aktiengesellschaft, priority 2017, published 2020).
# Key:
# Assay type in all cases: in vivo
# Phaedon cochleariae = Phaedon cochleariae spray test; conditions: foliar, 168 h, application rate 100 g/ha, larvae on Chinese cabbage leaf discs, after 7 days, read-out: efficacy
# Method: Phaedon cochleariae—Spray Test
# To produce a suitable active compound formulation, 1 part by weight of active compound is dissolved with the specified parts by weight of solvent and made up to the desired concentration with water containing an emulsifier concentration of 1000 ppm. To produce further test concentrations, the formulation is diluted with emulsifier-containing water.
# Discs of Chinese cabbage leaves (Brassica pekinensis) are sprayed with an active compound formulation of the desired concentration and, after drying, populated with larvae of the mustard beetle (Phaedon cochleariae).
# After 7 days, the efficacy in % is determined. 100% means that all the beetle larvae have been killed; 0% means that no beetle larvae have been killed.
# Musca domestica = Musca domestica test; conditions: application rate 100 ppm; adult houseflies, sponge with sugar solution; after 2 days
# Method: Musca domestica Test Solvent: Dimethyl Sulfoxide To produce a suitable active compound formulation, 10 mg of active compound are mixed with 0.5 ml of dimethyl sulfoxide, and the concentrate is diluted with water to the desired concentration. Vessels containing a sponge treated with sugar solution and the desired concentration of active compound formulation are populated with 10 adult houseflies (Musca domestica). After 2 days, the kill in % is determined. 100% means that all of the flies have been killed; 0% means that none of the flies have been killed.
# Ctenocephalides felis [1] = experiment: Ctenocephalides felis in vitro contact test with adult cat fleas; conditions: application rate 5 μg/cm^2 (=500 g of ai/ha); adult cat fleas in coated glass tube; after 48 h; dead or moribund
# Method: Ctenocephalides felis—In Vitro Contact Tests with Adult Cat Fleas For the coating of the test tubes, 9 mg of active compound are first dissolved in 1 ml of acetone p.a. and then diluted to the desired concentration with acetone p.a. 250 μl of the solution are distributed homogeneously on the inner walls and the base of a 25 ml glass tube by turning and rocking on an orbital shaker (rocking rotation at 30 rpm for 2 h). With 900 ppm of active compound solution and internal surface area 44.7 cm^2, given homogeneous distribution, an area-based dose of 5 μg/cm^2 is achieved. After the solvent has evaporated off, the tubes are populated with 5-10 adult cat fleas (Ctenocephalides felis), sealed with a perforated plastic lid and incubated in a horizontal position at room temperature and ambient humidity. After 48 h, efficacy is determined. To this end, the tubes are stood upright and the fleas are knocked to the base of the tube. Fleas which remain motionless at the base or move in an uncoordinated manner are considered to be dead or moribund. […] 100% efficacy means that all the fleas were dead or moribund. 0% efficacy means that no fleas were harmed.
# Lucilia cuprina = Lucilia cuprina test; conditions: application rate 100 ppm; L1 larvae on minced horsemeat; after 2 days
# Method: Lucilia cuprina Test Solvent: Dimethyl Sulfoxide To produce a suitable active compound formulation, 10 mg of active compound are mixed with 0.5 ml of dimethyl sulfoxide, and the concentrate is diluted with water to the desired concentration. About 20 L1 larvae of the Australian sheep blowfly (Lucilia cuprina) are transferred into a test vessel containing minced horsemeat and the active compound preparation of the desired concentration. After 2 days, the kill in % is determined. 100% means that all the larvae have been killed; 0% means that no larvae have been killed.
# Spodoptera frugiperda = Spodoptera frugiperda spray test; conditions: foliar, 168 h, application rate 100 g/ha, caterpillars on maize leaf discs, after 7 days, read-out: efficacy
# Method: Spodoptera frugiperda—Spray Test [table] To produce a suitable active compound formulation, 1 part by weight of active compound is dissolved with the specified parts by weight of solvent and made up to the desired concentration with water containing an emulsifier concentration of 1000 ppm. To produce further test concentrations, the formulation is diluted with emulsifier-containing water. Leaf discs of maize (Zea mays) are sprayed with an active compound formulation of the desired concentration and, after drying, populated with caterpillars of the fall armyworm (Spodoptera frugiperda). After 7 days, the efficacy in % is determined. 100% means that all the caterpillars have been killed; 0% means that no caterpillar has been killed.
# Myzus persicae = Myzus persicae oral test; conditions: 120 h, application rate 4 ppm, mixed population of green peach aphids, after 5 days, read-out: efficacy
# Method: Myzus persicae—Oral Test [table] To produce a suitable active compound formulation, 1 part by weight of active compound is dissolved with the stated parts by weight of solvent and made up to the desired concentration with water. 50 μl of the active compound formulation are transferred into microtitre plates and made up to a final volume of 200 μl with 150 μl of IPL41 insect medium (33%+15% sugar). Subsequently, the plates are sealed with parafilm, which a mixed population of green peach aphids (Myzus persicae) within a second microtitre plate is able to puncture and imbibe the solution. After 5 days, the efficacy in % is determined. 100% means that all the aphids have been killed; 0% means that no aphids have been killed.
# Ctenocephalides felis [2] = experiment: Ctenocephalides felis oral test; conditions: application rate 100 ppm in citrated cattle blood; unfed adult cat fleas; after 2 days
# Method: Ctenocephalides felis—Oral Test Solvent: Dimethyl Sulfoxide To produce a suitable active compound formulation, 10 mg of active compound are mixed with 0.5 ml of dimethyl sulfoxide. Dilution with citrated cattle blood gives the desired concentration. About 20 unfed adult cat fleas (Ctenocephalides felis) are placed into a chamber which is closed at the top and bottom with gauze. A metal cylinder whose bottom end is closed with parafilm is placed onto the chamber. The cylinder contains the blood/active compound formulation, which can be imbibed by the fleas through the parafilm membrane. After 2 days, the kill in % is determined. 100% means that all of the fleas have been killed; 0% means that none of the fleas have been killed.
compound,measurement,setting,value
CCS(=O)(=O)c1c(-c2nc3cc(C(F)(F)F)ncc3n2C)sc2nc(C(F)(F)F)sc12 [I-10],pest or weed control at 100 g/ha,Phaedon cochleariae,100%
same,efficacy (kill in %),Musca domestica,80%
same,efficacy,Ctenocephalides felis [1],100%
same,efficacy (kill in %),Lucilia cuprina,100%
same,pest or weed control at 100 g/ha,Spodoptera frugiperda,100%
same,pest or weed control at 4 ppm,Myzus persicae,90%
same,efficacy (kill in %),Ctenocephalides felis [2],80%
